Tests used:
RET = target: T1, RET (Homo sapiens, UniProt P07949); assay: KINOMEscan 1 μM, RET; assay type: binding; settings: 1000 nM; Entrez RET; read-out: Percent Control
T1 construct: purchased Eurofins DiscoverX KINOMEscan
From the text: (§1) Supplement cells-12-00287-s001.zip/File S2. KinomeScan data for the CAMKK2 probe and negative control.xlsx, sheet "SGC-CAMKK2-1" | column: Percent Control

SNRK = target: T2, SNRK (Homo sapiens, UniProt Q9NRH2); assay: KINOMEscan 1 μM, SNRK; assay type: binding; settings: 1000 nM; Entrez SNRK; read-out: Percent Control
T2 construct: purchased Eurofins DiscoverX KINOMEscan
From the text: as §1

DRAK2 = target: T3, DRAK2 (Homo sapiens, UniProt O94768); assay: KINOMEscan 1 μM, DRAK2; assay type: binding; settings: 1000 nM; Entrez STK17B; read-out: Percent Control
T3 construct: purchased Eurofins DiscoverX KINOMEscan
T3 sequence (O94768 whole entry): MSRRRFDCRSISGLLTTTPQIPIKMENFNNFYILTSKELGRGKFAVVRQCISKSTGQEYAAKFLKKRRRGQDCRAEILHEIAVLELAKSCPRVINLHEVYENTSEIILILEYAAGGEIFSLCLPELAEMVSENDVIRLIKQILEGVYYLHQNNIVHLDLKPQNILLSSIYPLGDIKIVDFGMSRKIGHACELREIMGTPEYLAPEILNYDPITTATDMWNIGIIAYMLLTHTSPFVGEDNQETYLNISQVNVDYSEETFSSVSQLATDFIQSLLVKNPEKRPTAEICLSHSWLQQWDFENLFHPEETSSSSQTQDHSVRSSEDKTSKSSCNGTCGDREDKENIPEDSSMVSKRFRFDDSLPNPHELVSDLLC
From the text: as §1

NEK5 = target: T4, NEK5 (Homo sapiens, UniProt Q6P3R8); assay: KINOMEscan 1 μM, NEK5; assay type: binding; settings: 1000 nM; Entrez NEK5; read-out: Percent Control
T4 construct: purchased Eurofins DiscoverX KINOMEscan
From the text: as §1

SGK3 = target: T5, SGK3 (Homo sapiens, UniProt Q96BR1); assay: DiscoverX KINOMEscan binding assay at 1 μM, SGK3; settings: Compound Concentration 1000 nM, read-out: Percent Control
T5 construct: purchased Eurofins DiscoverX KINOMEscan
From the text: as §1

QSK = target: T6, QSK (Homo sapiens, UniProt Q9Y2K2); assay: DiscoverX KINOMEscan binding assay at 1 μM, QSK; settings: QSK (KIAA0999); Compound Concentration 1000 nM; read-out: Percent Control
T6 construct: purchased Eurofins DiscoverX KINOMEscan
From the text: as §1

MLK3 = target: T7, MLK3 (Homo sapiens, UniProt Q16584); assay: KINOMEscan 1 μM, MLK3; assay type: binding; settings: 1000 nM; Entrez MAP3K11; read-out: Percent Control
T7 construct: purchased Eurofins DiscoverX KINOMEscan
From the text: as §1

ULK2 = target: T8, ULK2 (Homo sapiens, UniProt Q8IYT8); assay: DiscoverX KINOMEscan binding assay at 1 μM, ULK2; settings: Compound Concentration 1000 nM, read-out: Percent Control
T8 construct: purchased Eurofins DiscoverX KINOMEscan
From the text: as §1

CDC2L1 = target: T9, CDC2L1 (Homo sapiens, UniProt P21127); assay: KINOMEscan 1 μM, CDC2L1; assay type: binding; settings: 1000 nM; Entrez CDK11B; read-out: Percent Control
T9 construct: purchased Eurofins DiscoverX KINOMEscan
From the text: as §1

TYRO3 = target: T10, TYRO3 (Homo sapiens, UniProt Q06418); assay: DiscoverX KINOMEscan binding assay at 1 μM, TYRO3; settings: Compound Concentration 1000 nM, read-out: Percent Control
T10 construct: purchased Eurofins DiscoverX KINOMEscan
From the text: as §1

PRKG1 = target: T11, PRKG1 (Homo sapiens, UniProt Q13976); assay: DiscoverX KINOMEscan binding assay at 1 μM, PRKG1; settings: Compound Concentration 1000 nM, read-out: Percent Control
T11 construct: purchased Eurofins DiscoverX KINOMEscan
From the text: as §1

NDR1 = target: T12, NDR1 (Homo sapiens, UniProt Q15208); assay: KINOMEscan 1 μM, NDR1; assay type: binding; settings: 1000 nM; Entrez STK38; read-out: Percent Control
T12 construct: purchased Eurofins DiscoverX KINOMEscan
T12 sequence (Q15208 whole entry): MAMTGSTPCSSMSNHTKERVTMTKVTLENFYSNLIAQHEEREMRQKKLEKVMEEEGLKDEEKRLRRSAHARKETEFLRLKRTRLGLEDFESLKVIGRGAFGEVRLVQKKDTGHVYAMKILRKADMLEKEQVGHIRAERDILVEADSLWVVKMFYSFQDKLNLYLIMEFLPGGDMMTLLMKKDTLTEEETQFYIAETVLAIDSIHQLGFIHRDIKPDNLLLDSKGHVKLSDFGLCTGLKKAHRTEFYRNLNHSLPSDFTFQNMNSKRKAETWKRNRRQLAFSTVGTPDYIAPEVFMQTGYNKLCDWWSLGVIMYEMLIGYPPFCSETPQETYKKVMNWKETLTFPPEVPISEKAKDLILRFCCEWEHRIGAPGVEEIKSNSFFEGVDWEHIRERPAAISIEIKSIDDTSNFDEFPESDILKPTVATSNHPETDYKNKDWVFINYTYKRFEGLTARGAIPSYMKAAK
From the text: as §1

CSNK1G1 = target: T13, CSNK1G1 (Homo sapiens, UniProt Q9HCP0); assay: KINOMEscan 1 μM, CSNK1G1; assay type: binding; settings: 1000 nM; Entrez CSNK1G1; read-out: Percent Control
T13 construct: purchased Eurofins DiscoverX KINOMEscan
From the text: as §1

PCTK2 = target: T14, PCTK2 (Homo sapiens, UniProt Q00537); assay: KINOMEscan at 1 μM, PCTK2; assay type: binding; settings: 1000 nM, read-out: Percent Control
T14 construct: purchased Eurofins DiscoverX KINOMEscan
From the text: (§2) Supplement cells-12-00287-s001.zip/File S2. KinomeScan data for the CAMKK2 probe and negative control.xlsx, sheet "SGC-CAMKK2-1N" | column: Percent Control

LIMK1 = target: T15, LIMK1 (Homo sapiens, UniProt P53667); assay: KINOMEscan at 1 μM, LIMK1; assay type: binding; settings: 1000 nM, read-out: Percent Control
T15 construct: purchased Eurofins DiscoverX KINOMEscan
From the text: as §2

CDC2L5 = target: T16, CDC2L5 (Homo sapiens, UniProt Q14004); assay: KINOMEscan at 1 μM, CDC2L5; assay type: binding; settings: 1000 nM, read-out: Percent Control
T16 construct: purchased Eurofins DiscoverX KINOMEscan
T16 sequence (Q14004 whole entry): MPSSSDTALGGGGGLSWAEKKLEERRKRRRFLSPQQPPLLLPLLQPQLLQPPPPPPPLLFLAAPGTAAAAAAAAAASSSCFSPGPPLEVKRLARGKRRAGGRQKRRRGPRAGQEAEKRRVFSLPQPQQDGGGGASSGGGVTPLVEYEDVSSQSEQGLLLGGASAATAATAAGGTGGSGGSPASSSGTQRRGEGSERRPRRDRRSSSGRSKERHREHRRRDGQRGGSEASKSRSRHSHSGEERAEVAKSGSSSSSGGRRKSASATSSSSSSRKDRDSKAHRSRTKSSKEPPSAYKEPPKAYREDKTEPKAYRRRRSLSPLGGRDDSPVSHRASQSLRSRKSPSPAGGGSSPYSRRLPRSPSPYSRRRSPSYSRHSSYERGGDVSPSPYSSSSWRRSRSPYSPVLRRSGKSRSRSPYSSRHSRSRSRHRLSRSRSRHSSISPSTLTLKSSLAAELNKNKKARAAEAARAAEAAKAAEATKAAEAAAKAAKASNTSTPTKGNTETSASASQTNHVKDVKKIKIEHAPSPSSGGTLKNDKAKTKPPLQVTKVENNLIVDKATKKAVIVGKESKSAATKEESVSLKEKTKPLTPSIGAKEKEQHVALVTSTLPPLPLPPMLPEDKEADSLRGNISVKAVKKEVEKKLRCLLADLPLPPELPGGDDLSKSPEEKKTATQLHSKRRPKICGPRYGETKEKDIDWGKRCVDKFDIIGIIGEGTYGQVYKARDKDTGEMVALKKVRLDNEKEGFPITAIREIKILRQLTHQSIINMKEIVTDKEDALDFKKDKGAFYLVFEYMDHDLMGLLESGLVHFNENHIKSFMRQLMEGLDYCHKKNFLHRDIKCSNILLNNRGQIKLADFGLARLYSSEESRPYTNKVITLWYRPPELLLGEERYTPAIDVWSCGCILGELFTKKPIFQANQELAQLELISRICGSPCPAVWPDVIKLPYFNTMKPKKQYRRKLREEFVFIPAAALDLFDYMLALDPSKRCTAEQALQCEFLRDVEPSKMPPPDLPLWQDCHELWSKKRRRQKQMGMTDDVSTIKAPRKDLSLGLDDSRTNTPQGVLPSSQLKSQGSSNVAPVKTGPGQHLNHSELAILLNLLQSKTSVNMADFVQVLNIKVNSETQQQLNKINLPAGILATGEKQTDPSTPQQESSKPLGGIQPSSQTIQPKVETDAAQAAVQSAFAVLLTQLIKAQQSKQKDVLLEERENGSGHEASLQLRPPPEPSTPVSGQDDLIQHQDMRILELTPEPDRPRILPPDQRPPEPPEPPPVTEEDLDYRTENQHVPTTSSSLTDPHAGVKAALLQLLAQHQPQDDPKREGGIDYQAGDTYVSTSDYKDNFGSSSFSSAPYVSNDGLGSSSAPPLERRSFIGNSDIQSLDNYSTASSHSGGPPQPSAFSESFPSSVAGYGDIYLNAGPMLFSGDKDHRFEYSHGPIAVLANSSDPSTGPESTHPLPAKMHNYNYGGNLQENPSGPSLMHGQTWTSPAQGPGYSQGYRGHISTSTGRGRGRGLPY
From the text: as §2

TRKB = target: T17, TRKB (Homo sapiens, UniProt Q16620); assay: KINOMEscan at 1 μM, TRKB; assay type: binding; settings: 1000 nM, read-out: Percent Control
T17 construct: purchased Eurofins DiscoverX KINOMEscan
T17 sequence (Q16620 32-822): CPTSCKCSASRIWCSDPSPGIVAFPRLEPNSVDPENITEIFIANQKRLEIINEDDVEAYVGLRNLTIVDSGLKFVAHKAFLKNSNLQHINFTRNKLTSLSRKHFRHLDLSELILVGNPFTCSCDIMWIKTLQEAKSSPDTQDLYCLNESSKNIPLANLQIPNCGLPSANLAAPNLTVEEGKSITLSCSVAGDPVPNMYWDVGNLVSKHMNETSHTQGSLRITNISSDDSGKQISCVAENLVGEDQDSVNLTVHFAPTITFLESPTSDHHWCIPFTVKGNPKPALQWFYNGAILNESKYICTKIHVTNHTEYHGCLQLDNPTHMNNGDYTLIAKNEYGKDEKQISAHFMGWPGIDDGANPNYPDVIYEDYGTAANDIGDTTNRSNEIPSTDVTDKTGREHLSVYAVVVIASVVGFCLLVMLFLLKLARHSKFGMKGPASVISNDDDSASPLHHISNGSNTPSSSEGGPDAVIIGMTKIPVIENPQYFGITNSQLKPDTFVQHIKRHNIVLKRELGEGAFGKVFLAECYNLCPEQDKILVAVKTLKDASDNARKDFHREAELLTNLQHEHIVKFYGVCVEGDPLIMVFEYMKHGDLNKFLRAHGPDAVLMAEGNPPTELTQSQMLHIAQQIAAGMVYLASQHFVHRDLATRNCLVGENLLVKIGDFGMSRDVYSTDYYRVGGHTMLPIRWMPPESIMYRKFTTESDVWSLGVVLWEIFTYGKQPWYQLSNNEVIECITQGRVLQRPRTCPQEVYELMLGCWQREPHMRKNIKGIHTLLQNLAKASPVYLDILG
From the text: as §2

IRAK4 = target: T18, IRAK4 (Homo sapiens, UniProt Q9NWZ3); assay: KINOMEscan at 1 μM, IRAK4; assay type: binding; settings: 1000 nM, read-out: Percent Control
T18 construct: purchased Eurofins DiscoverX KINOMEscan
From the text: as §2

KIT(D816H) = target: T19, KIT(D816H) (Homo sapiens, UniProt P10721, D816H); assay: KINOMEscan at 1 μM, KIT(D816H); assay type: binding; settings: 1000 nM, read-out: Percent Control
T19 construct: purchased Eurofins DiscoverX KINOMEscan
From the text: as §2

FRK = target: T20, FRK (Homo sapiens, UniProt P42685); assay: KINOMEscan binding assay at 1 μM, FRK; settings: Compound Concentration 1000 nM; read-out: Percent Control
T20 construct: purchased Eurofins DiscoverX KINOMEscan
From the text: as §2

CAMK2A = target: T21, CAMK2A (Homo sapiens, UniProt Q9UQM7); assay: KINOMEscan at 1 μM, CAMK2A; assay type: binding; settings: 1000 nM, read-out: Percent Control
T21 construct: purchased Eurofins DiscoverX KINOMEscan
From the text: as §2

PIP5K2B = target: T22, PIP5K2B (Homo sapiens, UniProt P78356); assay: KINOMEscan at 1 μM, PIP5K2B; assay type: binding; settings: 1000 nM, read-out: Percent Control
T22 construct: purchased Eurofins DiscoverX KINOMEscan
From the text: as §2

BTK = target: T23, BTK (Homo sapiens, UniProt Q06187); assay: KINOMEscan at 1 μM, BTK; assay type: binding; settings: 1000 nM, read-out: Percent Control
T23 construct: purchased Eurofins DiscoverX KINOMEscan
From the text: as §2

NEK6 = target: T24, NEK6 (Homo sapiens, UniProt Q9HC98); assay: KINOMEscan binding assay at 1 μM, NEK6; settings: Compound Concentration 1000 nM; read-out: Percent Control
T24 construct: purchased Eurofins DiscoverX KINOMEscan
From the text: as §2

MERTK = target: T25, MERTK (Homo sapiens, UniProt Q12866); assay: KINOMEscan at 1 μM, MERTK; assay type: binding; settings: 1000 nM, read-out: Percent Control
T25 construct: purchased Eurofins DiscoverX KINOMEscan
From the text: as §2

ABL2 = target: T26, ABL2 (Homo sapiens, UniProt P42684); assay: KINOMEscan at 1 μM, ABL2; assay type: binding; settings: 1000 nM, read-out: Percent Control
T26 construct: purchased Eurofins DiscoverX KINOMEscan
From the text: as §2

DYRK1B = target: T27, DYRK1B (Homo sapiens, UniProt Q9Y463); assay: KINOMEscan at 1 μM, DYRK1B; assay type: binding; settings: 1000 nM, read-out: Percent Control
T27 construct: purchased Eurofins DiscoverX KINOMEscan
From the text: as §2

PLK3 = target: T28, PLK3 (Homo sapiens, UniProt Q9H4B4); assay: KINOMEscan at 1 μM, PLK3; assay type: binding; settings: 1000 nM, read-out: Percent Control
T28 construct: purchased Eurofins DiscoverX KINOMEscan
From the text: as §2

PFCDPK1(P.falciparum) = target: T29, PFCDPK1(P.falciparum) (Plasmodium falciparum, UniProt P62344); assay: KINOMEscan binding assay at 1 μM, PFCDPK1(P.falciparum); settings: Compound Concentration 1000 nM; read-out: Percent Control
T29 construct: purchased Eurofins DiscoverX KINOMEscan
T29 sequence (P62344 whole entry): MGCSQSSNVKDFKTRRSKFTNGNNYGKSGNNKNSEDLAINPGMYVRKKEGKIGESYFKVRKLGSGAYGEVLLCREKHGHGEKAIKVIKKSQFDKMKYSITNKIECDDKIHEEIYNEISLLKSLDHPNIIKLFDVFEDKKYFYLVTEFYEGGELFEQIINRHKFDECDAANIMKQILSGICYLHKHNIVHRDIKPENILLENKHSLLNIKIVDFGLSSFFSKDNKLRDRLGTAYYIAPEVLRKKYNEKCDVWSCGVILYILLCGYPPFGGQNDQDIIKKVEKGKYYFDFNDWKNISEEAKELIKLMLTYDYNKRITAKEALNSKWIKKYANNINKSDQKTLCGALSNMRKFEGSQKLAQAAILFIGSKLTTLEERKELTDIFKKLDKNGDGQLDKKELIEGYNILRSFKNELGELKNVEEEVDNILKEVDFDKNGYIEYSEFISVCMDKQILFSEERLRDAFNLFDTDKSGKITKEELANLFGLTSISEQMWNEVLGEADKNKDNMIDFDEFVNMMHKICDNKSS
From the text: as §2

EGFR = target: T30, EGFR (Homo sapiens, UniProt P00533); assay: KINOMEscan at 1 μM, EGFR; assay type: binding; settings: 1000 nM, read-out: Percent Control
T30 construct: purchased Eurofins DiscoverX KINOMEscan
From the text: as §2

AXL = target: T31, AXL (Homo sapiens, UniProt P30530); assay: KINOMEscan at 1 μM, AXL; assay type: binding; settings: 1000 nM, read-out: Percent Control
T31 construct: purchased Eurofins DiscoverX KINOMEscan
From the text: as §2

ACVR1 = target: T32, ACVR1 (Homo sapiens, UniProt Q04771); assay: KINOMEscan at 1 μM, ACVR1; assay type: binding; settings: 1000 nM, read-out: Percent Control
T32 construct: purchased Eurofins DiscoverX KINOMEscan
From the text: as §2

[1] = target: T33, EGFR(L747-E749del, A750P) (Homo sapiens, UniProt P00533, A750P/DEL747-749); assay: KINOMEscan binding assay at 1 μM, EGFR(L747-E749del, A750P); settings: Compound Concentration 1000 nM; read-out: Percent Control
T33 construct: purchased Eurofins DiscoverX KINOMEscan
From the text: as §2

FGFR1 = target: T34, FGFR1 (Homo sapiens, UniProt P11362); assay: KINOMEscan binding assay at 1 μM, FGFR1; settings: Compound Concentration 1000 nM; read-out: Percent Control
T34 construct: purchased Eurofins DiscoverX KINOMEscan
T34 sequence (P11362 22-822): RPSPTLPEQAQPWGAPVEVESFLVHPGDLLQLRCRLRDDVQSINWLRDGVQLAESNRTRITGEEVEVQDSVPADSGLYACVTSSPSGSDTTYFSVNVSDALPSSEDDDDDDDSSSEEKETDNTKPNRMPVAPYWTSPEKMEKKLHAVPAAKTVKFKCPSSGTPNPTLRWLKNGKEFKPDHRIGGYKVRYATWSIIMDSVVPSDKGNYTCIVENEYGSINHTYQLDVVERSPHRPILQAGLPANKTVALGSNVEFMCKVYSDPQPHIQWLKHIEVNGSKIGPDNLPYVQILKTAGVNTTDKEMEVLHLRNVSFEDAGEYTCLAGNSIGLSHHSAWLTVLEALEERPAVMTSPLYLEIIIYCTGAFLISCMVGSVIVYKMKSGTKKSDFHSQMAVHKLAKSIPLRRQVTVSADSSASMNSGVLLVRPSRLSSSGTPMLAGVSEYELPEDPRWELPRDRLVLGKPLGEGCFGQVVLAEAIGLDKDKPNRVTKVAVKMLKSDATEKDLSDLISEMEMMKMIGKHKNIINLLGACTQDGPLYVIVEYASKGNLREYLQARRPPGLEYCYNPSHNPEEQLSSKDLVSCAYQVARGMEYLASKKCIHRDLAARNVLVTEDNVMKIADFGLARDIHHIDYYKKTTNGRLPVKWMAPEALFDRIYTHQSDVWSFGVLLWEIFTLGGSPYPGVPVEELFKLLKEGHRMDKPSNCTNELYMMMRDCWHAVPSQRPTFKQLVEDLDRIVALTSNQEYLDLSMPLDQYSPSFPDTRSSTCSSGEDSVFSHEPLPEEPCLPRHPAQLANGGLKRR
From the text: as §2

[2] = target: T35, NLuc-CAMKK2 (kinase domain) in HEK293 cells (Homo sapiens, UniProt Q96RR4); assay: CAMKK2 NanoBRET in-cell target engagement assay; assay type: cell-based; settings: HEK293 cells transiently transfected with NLuc-CAMKK2
T35 construct: this assay utilizes a nanoluciferase (NL) fused to the kinase domain of CAMKK2; expressed in transfected cells; host or cells: HEK293
T35 sequence (Q96RR4 165-446 limits assumed): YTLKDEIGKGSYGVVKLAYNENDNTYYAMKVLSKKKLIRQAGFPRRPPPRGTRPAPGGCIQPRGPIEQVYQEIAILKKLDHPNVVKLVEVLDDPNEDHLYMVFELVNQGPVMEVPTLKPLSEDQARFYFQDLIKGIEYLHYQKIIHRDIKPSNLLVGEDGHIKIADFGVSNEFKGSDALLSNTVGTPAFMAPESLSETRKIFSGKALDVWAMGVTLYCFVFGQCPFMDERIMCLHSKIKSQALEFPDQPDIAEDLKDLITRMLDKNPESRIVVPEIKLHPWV
Procedure: CAMKK2 NanoBRET assay: To quantify the cellular activity of these inhibitors we developed a CAMKK2 NanoBRET target engagement assay [51, 52]. Briefly this assay utilizes a nanoluciferase (NL) fused to the kinase domain of CAMKK2. This NL kinase fusion is then transiently transfected into HEK293 cells and after 24 h, tracer is added to the cells. When the tracer and the NL-CAMKK2 fusion come into proximity they create a BRET signal that can be competed in a dose-dependent manner by the addition of cell-penetrant CAMKK2 inhibitors.
To evaluate this, we developed a NanoBRET in-cell target engagement assay. For this assay, the CAMKK2 kinase domain fused with a Nanoluciferase (NLuc) tag is transiently transfected into HEK293 cells. After 24 h, a heterobifunctional molecule that consists of an inhibitor that binds to CAMKK2 linked to a BODIPY dye is added to the cells. When the inhibitor–dye hybrid binds to the kinase, the proximity to the NLuc fused to CAMKK2 creates a BRET signal. This signal can then be competed away in a dose-dependent fashion with free inhibitor.

Cc1cccc(-c2cnc3occ(-c4ccc(C(=O)O)c(C5CCCC5)c4)c3c2)c1 [SGC-CAMKK2-1 (YL-36)]
remaining binding at 1 µM (RET): 98%
remaining binding at 1 µM (SNRK): 94%
remaining binding at 1 µM (DRAK2): 100%
remaining binding at 1 µM (NEK5): 100%
remaining binding at 1 µM (SGK3): 100%
remaining binding at 1 µM (QSK): 100%
remaining binding at 1 µM (MLK3): 89%
remaining binding at 1 µM (ULK2): 100%
remaining binding at 1 µM (CDC2L1): 93%
remaining binding at 1 µM (TYRO3): 100%
remaining binding at 1 µM (PRKG1): 100%
remaining binding at 1 µM (NDR1): 100%
remaining binding at 1 µM (CSNK1G1): 100%

O=C(O)c1ccc(-c2coc3ncc(-c4ccccc4)cc23)cc1Cl [SGC-CAMKK2-1N (UNC-YL-83)]
remaining binding at 1 µM (PCTK2): 81%
remaining binding at 1 µM (LIMK1): 88%
remaining binding at 1 µM (CDC2L5): 57%
remaining binding at 1 µM (TRKB): 81%
remaining binding at 1 µM (IRAK4): 72%
remaining binding at 1 µM (KIT(D816H)): 57%
remaining binding at 1 µM (FRK): 100%
remaining binding at 1 µM (CAMK2A): 65%
remaining binding at 1 µM (PIP5K2B): 74%
remaining binding at 1 µM (BTK): 60%
remaining binding at 1 µM (NEK6): 100%
remaining binding at 1 µM (MERTK): 93%
remaining binding at 1 µM (ABL2): 100%
remaining binding at 1 µM (DYRK1B): 94%
remaining binding at 1 µM (PLK3): 91%
remaining binding at 1 µM (PFCDPK1(P.falciparum)): 100%
remaining binding at 1 µM (EGFR): 100%
remaining binding at 1 µM (AXL): 94%
remaining binding at 1 µM (ACVR1): 85%
remaining binding at 1 µM [1]: 100%
remaining binding at 1 µM (FGFR1): 100%

Cc1cccc(-c2cnc3occ(-c4ccc(C(=O)O)c(C5CCCC5)c4)c3c2)c1 [Compound 5]
IC50 [2]: 270 nM
